For experiment [1], the target named is T1, Tyrosine-protein kinase ITK/TSK (Homo sapiens) (UniProt Q08881).
T1 sequence (whole entry): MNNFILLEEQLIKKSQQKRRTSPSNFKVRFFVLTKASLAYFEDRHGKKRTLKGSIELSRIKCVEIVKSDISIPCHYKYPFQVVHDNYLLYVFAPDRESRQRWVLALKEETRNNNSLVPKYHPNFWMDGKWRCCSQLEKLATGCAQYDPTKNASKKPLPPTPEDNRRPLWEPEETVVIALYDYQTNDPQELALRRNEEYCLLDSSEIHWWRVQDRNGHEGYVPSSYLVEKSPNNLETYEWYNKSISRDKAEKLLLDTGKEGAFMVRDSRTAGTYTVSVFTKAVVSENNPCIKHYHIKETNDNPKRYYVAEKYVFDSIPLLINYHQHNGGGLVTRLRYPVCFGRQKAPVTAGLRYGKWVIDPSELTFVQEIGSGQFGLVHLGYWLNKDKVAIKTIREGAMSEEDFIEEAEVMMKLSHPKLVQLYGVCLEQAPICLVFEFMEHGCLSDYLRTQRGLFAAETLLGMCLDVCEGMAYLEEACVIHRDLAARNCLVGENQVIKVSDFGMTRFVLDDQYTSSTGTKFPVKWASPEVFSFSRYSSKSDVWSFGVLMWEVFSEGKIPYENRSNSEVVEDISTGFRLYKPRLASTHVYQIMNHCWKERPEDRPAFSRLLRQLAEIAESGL
Briefly: Inhibition of ITK at 10 uM by colorimetric analysis.

For experiment [2], the target named is T2, Tyrosine-protein kinase receptor TYRO3 (Homo sapiens) (UniProt Q06418).
T2 sequence (whole entry): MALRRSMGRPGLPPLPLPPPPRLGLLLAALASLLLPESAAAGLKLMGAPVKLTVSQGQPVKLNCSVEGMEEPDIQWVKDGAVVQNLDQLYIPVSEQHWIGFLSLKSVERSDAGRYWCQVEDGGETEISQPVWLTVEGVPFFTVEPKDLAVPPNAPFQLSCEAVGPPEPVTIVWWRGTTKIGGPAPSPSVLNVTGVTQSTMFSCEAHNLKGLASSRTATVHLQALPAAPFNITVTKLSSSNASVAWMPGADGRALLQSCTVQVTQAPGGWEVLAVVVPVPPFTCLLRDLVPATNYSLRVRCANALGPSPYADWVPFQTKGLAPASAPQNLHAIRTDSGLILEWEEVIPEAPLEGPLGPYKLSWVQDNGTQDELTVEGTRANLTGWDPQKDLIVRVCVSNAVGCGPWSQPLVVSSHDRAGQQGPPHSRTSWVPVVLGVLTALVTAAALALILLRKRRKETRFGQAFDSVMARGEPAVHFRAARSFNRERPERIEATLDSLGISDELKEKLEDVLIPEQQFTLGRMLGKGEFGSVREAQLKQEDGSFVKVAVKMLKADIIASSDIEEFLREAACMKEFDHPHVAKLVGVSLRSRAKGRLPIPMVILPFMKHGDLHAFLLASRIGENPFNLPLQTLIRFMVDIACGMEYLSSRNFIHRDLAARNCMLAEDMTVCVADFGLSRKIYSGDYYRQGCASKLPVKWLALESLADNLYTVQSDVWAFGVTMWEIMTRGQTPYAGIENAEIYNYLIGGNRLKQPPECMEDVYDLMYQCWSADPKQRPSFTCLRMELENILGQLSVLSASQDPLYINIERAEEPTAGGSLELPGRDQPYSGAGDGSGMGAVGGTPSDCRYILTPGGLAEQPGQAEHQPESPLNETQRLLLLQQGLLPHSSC
Kind of experiment: Inhibition of TYRO3 at 10 uM by colorimetric analysis.

The target in experiment [3] is Cyclin-dependent kinase 2/cyclin A (Homo sapiens) (UniProt P24941+P20248+P78396). Briefly: Inhibition of CDK2/CycA2 at 10 uM by colorimetric analysis. Format: protein-complex assay.
Experiment [4] addresses Casein kinase I isoform epsilon (Homo sapiens) (UniProt P49674). Kind of experiment: Inhibition of CK1epsilon at 10 uM by colorimetric analysis.
Experiment [5] addresses T3, Serine/threonine-protein kinase D2 (Homo sapiens) (UniProt Q9BZL6).
T3 sequence (whole entry): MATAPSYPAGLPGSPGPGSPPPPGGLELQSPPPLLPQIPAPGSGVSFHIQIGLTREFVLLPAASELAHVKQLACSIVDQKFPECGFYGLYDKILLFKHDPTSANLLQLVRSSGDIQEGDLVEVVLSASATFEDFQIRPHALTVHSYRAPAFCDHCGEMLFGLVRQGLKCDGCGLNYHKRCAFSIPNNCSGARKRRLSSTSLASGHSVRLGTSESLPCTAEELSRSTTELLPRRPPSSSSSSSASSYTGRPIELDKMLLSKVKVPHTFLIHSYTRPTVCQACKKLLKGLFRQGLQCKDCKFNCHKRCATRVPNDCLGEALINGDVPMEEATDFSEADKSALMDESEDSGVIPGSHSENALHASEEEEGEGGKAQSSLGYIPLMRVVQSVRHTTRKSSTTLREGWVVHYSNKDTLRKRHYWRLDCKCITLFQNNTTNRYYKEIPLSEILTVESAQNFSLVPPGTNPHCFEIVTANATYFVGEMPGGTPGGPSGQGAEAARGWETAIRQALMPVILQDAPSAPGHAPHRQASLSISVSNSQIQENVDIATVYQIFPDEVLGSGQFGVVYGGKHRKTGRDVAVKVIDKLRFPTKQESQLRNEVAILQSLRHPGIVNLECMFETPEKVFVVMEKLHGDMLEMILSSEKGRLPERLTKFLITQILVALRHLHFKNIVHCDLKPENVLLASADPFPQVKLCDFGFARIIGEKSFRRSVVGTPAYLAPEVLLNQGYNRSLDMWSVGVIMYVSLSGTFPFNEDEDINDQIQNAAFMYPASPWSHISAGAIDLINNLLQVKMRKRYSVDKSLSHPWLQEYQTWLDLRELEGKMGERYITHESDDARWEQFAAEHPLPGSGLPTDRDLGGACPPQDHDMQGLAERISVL
Briefly: Inhibition of PKD2 at 10 uM by colorimetric analysis.

The target of experiment [6] is Fibroblast growth factor receptor 1 (Homo sapiens) (UniProt P11362). Briefly: Inhibition of FGFR1 at 10 uM by colorimetric analysis.
Chain of Fibroblast growth factor receptor 1 (Homo sapiens) (P11362 22-822 limits assumed): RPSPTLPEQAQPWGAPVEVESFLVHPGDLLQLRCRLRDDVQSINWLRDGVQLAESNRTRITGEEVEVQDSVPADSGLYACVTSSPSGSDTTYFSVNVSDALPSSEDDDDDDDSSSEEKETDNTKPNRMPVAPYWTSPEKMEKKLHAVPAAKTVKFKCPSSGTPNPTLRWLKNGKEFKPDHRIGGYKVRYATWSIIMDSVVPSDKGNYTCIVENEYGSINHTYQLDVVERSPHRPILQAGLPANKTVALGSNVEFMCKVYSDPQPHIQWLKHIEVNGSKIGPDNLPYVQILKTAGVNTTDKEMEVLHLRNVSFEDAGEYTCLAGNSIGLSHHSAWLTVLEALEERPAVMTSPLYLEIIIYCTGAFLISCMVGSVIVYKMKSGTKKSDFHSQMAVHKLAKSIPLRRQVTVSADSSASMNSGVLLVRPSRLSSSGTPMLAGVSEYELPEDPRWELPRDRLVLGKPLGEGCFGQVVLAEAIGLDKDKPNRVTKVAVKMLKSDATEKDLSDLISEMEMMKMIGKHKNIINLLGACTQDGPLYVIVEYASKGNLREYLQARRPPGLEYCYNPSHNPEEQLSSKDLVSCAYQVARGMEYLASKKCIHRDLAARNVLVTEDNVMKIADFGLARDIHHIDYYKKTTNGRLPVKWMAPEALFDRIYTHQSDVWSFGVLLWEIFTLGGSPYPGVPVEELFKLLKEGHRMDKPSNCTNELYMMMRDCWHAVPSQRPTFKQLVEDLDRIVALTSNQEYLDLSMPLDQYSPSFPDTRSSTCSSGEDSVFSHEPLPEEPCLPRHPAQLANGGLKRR
The target of experiment [7] is Insulin-like growth factor 1 receptor (Homo sapiens) (UniProt P08069). Briefly: Inhibition of IGF1R at 10 uM by colorimetric analysis.
Chain of Insulin-like growth factor 1 receptor (Homo sapiens) (P08069 31-736 limits assumed): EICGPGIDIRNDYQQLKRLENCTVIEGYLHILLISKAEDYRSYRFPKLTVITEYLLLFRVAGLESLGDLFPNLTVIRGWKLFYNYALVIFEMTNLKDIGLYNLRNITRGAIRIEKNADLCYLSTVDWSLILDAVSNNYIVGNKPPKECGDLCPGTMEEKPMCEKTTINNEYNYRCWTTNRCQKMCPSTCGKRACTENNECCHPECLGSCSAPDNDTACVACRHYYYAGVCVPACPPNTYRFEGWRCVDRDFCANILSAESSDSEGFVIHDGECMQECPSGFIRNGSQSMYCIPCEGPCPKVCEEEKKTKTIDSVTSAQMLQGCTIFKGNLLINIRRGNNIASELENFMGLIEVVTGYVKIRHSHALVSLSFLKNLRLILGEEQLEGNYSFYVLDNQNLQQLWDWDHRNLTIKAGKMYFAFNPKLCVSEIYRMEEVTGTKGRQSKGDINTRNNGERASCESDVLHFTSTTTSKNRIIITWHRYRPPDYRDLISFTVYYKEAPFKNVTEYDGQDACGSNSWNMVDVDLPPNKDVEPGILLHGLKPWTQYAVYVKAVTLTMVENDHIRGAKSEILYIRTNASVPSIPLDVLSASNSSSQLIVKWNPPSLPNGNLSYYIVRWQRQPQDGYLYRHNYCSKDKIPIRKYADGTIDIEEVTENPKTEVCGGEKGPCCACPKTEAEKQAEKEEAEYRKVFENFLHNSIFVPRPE
Chain of Insulin-like growth factor 1 receptor (Homo sapiens) (P08069 741-1367 limits assumed): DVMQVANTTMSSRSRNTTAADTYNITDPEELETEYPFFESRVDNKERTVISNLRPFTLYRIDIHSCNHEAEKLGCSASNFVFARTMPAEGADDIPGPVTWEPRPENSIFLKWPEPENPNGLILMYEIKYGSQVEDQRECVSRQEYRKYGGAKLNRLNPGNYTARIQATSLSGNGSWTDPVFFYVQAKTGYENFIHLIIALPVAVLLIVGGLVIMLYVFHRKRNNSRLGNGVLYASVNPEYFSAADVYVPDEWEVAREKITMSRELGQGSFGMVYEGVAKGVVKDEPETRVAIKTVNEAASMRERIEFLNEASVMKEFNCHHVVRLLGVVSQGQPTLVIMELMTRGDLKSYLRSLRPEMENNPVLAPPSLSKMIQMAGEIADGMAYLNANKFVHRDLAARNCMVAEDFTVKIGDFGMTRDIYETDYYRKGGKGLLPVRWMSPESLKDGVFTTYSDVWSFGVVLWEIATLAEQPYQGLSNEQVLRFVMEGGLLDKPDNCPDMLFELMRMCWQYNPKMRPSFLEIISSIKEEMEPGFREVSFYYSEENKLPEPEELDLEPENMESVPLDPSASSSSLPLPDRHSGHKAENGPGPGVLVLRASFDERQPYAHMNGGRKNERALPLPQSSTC
Experiment [8] has as its target 5'-AMP-activated protein kinase catalytic subunit alpha-1 (Homo sapiens) (UniProt Q13131). Kind of experiment: Inhibition of AMPKalpha1 at 10 uM by colorimetric analysis.

Structures are written as SMILES. Activity calls are given as the source filed them. The rule behind the calls is not given here.

These results are taken from ChEMBL document CHEMBL1938312, “Design and combinatorial synthesis of a novel kinase-focused library using click chemistry-based fragment assembly” (Bioorg Med Chem Lett, 2012).

Chain of 5'-AMP-activated protein kinase catalytic subunit alpha-1 (Homo sapiens) (Q13131 whole entry, looked up): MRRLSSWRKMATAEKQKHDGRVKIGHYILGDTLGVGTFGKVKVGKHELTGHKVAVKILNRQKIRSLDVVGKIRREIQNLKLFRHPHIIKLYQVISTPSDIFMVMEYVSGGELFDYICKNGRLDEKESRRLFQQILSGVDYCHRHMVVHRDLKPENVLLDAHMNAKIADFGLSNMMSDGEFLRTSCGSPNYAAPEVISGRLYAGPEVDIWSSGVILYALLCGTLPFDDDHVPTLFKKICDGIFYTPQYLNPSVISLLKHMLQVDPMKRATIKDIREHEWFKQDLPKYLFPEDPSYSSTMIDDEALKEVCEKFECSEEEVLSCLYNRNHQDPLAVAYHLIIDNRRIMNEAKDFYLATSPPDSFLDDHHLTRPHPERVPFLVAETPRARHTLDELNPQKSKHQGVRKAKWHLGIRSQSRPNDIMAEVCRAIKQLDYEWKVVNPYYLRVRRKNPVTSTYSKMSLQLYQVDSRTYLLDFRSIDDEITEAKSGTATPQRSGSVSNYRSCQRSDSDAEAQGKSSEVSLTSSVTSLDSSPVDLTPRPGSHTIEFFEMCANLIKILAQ
Chain of Casein kinase I isoform epsilon (Homo sapiens) (P49674 whole entry, looked up, canonical isoform): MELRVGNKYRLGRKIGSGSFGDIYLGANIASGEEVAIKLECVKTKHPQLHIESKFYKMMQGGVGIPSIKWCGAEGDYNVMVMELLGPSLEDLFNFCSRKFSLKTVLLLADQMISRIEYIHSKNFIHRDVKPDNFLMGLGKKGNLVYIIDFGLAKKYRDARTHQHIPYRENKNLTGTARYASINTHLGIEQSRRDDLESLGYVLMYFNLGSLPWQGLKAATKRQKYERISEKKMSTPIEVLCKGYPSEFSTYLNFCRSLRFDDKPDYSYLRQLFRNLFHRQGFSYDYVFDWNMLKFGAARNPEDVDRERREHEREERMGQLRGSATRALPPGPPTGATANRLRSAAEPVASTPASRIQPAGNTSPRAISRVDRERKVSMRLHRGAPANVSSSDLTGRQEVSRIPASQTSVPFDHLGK

Turning to `Clc1ccc(-n2nncc2-c2ccncc2)cc1`, the inhibition result in experiment [1], in experiment [2], in experiment [6] and in experiment [7] was “inactive” each time. Further, the inhibition entry in experiment [3], in experiment [4], in experiment [5] and in experiment [8] was “Active” each time.
Regarding `Clc1ccc(-n2cc(-c3ccncc3)nn2)cc1`, the inhibition entry in experiment [1], in experiment [2], in experiment [6] and in experiment [7] was “inactive” throughout. In addition, the inhibition result in experiment [3], in experiment [4], in experiment [5] and in experiment [8] was “Active” each time.
Regarding `Clc1cccc(-n2cc(-c3ccncc3)nn2)c1`, the inhibition result in experiment [1], in experiment [2], in experiment [6] and in experiment [7] was “inactive” in each case. For the same compound, the inhibition entry in experiment [3], in experiment [4], in experiment [5] and in experiment [8] was “Active” throughout.
For `Clc1cccc(-n2nncc2-c2ccncc2)c1`, the inhibition result in experiment [1], in experiment [2], in experiment [6] and in experiment [7] was “inactive” each time. In addition, the inhibition entry in experiment [3], in experiment [4], in experiment [5] and in experiment [8] was “Active” in each case.
